From patent publication US20250136576A1, “Heterocyclic Compounds and Uses Thereof” (ACEA Therapeutics, Inc., priority 2021, published 2025) come the findings set out here.

The first assay deals with KM12-luc cells. Put plainly: Cell proliferation and growth inhibition assay (CCK-8) in KM12-luc. It is filed as cell-based. The following applies: KM12-Luc, 72 h, KM12-luc cells, treated with test compounds for 72 hrs, CCK-8 viability; read-out: NTRK IC50 in KM12-luc. Summed up: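 Cells were grown at 37 °C, 5% CO2 with 10% FBS: MV-4-11 in IMDM, H1975 in RPMI 1640, KM12-luc in DMEM. Viability was read by CCK-8 (1-4 hrs reagent incubation, absorbance at OD450). IC50 came from a non-linear sigmoidal dose-response fit.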
Consider `CC(=O)Nc1cc(Nc2ncc(C(F)(F)F)c(-c3cn(C)c4c(F)cccc34)n2)ccc1N1CC[C@H](N(C)C)C1` [Compound S-353, (S)—N-(2-(3-(dimethylamino)pyrrolidin-1-yl)-5-((4-(7-fluoro-1-methyl-1H-indol-3-yl)-5-(trifluoromethyl)pyrimidin-2-yl)amino)phenyl)acetamide], for which the IC50 (commonly the midpoint of a concentration-inhibition curve) turned out to be 35.2 nM. Same read-out and setting: the figure for `CCN(CCN(C)C)c1ccc(Nc2nc(-c3c[nH]c4cc(F)ccc34)ncc2C(F)(F)F)cc1NC(C)=O` [Compound 331b, N-(2-((2-(dimethylamino)ethyl)(ethyl)amino)-5-((2-(6-fluoro-1H-indol-3-yl)-5-(trifluoromethyl)pyrimidin-4-yl)amino)phenyl)acetamide] is 2020 nM; for `CCN(C(=O)CCN(C)C)c1ccc(Nc2ncc(Cl)c(-c3c[nH]c4ccccc34)n2)cc1NC(C)=O` [Compound 451, N-(2-acetamido-4-((5-chloro-4-(1H-indol-3-yl)pyrimidin-2-yl)amino)phenyl)-3-(dimethylamino)-N-ethylpropanamide] it is 14.2 nM.

For the compound `COc1cnc(Nc2ccc(N(C)CCN(C)C)c(NC(C)=O)c2)nc1-c1cn(C)c2ccccc12` [Compound 274, N-(2-((2-(dimethylamino)ethyl)(methyl)amino)-5-(5-methoxy-4-(1-methyl-1H-indol-3-yl)pyrimidin-2-ylamino)phenyl)acetamide], the IC50 is 128 nM. Same read-out and setting: the figure for `COc1c(N)nc(Nc2ccc(N(C)CCN(C)C)c(NC(C)=O)c2)nc1-c1cn(C)c2ccccc12` [Compound 295, N-(5-((4-amino-5-methoxy-6-(1-methyl-1H-indol-3-yl)pyrimidin-2-yl)amino)-2-((2-(dimethylamino)ethyl) (methyl)amino)phenyl) acetamide] is 159 nM; for `CN(C)CCN(C)c1ccc(Nc2ncc(C(F)(F)F)c(-c3cn(C)c4ccccc34)n2)cc1N` [Compound 306, N^1-(2-(dimethylamino)ethyl)-N^1-methyl-N^4-(4-(1-methyl-1H-indol-3-yl)-5-(trifluoromethyl)pyrimidin-2-yl)benzene-1,2,4-triamine] it is 56.1 nM; for `CC(=O)Nc1cc(Nc2ncc(Cl)c(-c3c[nH]c4ccccc34)n2)cc(F)c1N(C)CCN(C)C` [Compound 441, N-(5-((5-chloro-4-(1H-indol-3-yl)pyrimidin-2-yl)amino)-2-((2-(dimethylamino)ethyl)(methyl)amino)-3-fluorophenyl)acetamide] it is 24.9 nM. The same measure, in the same setting: as for `CC(=O)Nc1cc(Nc2ncc(C(F)(F)F)c(-c3cn(C)c4c(F)cccc34)n2)ccc1N(C)CCN(C)C` [Compound 346, N-(2-((2-(dimethylamino)ethyl)(methyl)amino)-5-((4-(7-fluoro-1-methyl-1H-indol-3-yl)-5-(trifluoromethyl)pyrimidin-2-yl)amino)phenyl)acetamide], the figure is 105 nM; as for `CN(C)CCN(C)c1ccc(Nc2nc(-c3cn(C)c4ccccc34)c3cc[nH]c3n2)cc1S(C)(=O)=O` [Compound 206, N^1-(2-(dimethylamino)ethyl)-N^1-methyl-N^4-(4-(1-methyl-1H-indol-3-yl)-7H-pyrrolo[2,3-d]pyrimidin-2-yl)-2-(methylsulfonyl)benzene-1,4-diamine], 176 nM.

As to `COc1cccc2c1c(-c1nc(Nc3ccc(N(C)CCN(C)C)c(NC(C)=O)c3)ncc1F)cn2C` [Compound 271, N-(2-((2-(dimethylamino)ethyl)(methyl)amino)-5-((5-fluoro-4-(4-methoxy-1-methyl-1H-indol-3-yl)pyrimidin-2-yl)amino)phenyl)acetamide], the concentration for half-maximal inhibition (IC50) stood at 1480 nM.

Turning to `CCN(CCN(C)C)c1ccc(Nc2ncc(C(F)(F)F)c(-c3cn(C)c4ccccc34)n2)cc1NC(C)=O` [Compound 309, N-(2-((2-(dimethylamino)ethyl)(ethyl)amino)-5-((4-(1-methyl-1H-indol-3-yl)-5-(trifluoromethyl)pyrimidin-2-yl)amino)phenyl)acetamide], the IC50 turned out to be 135 nM. Still for that read-out and setting: the figure for `Cc1cccc2c(-c3nc(Nc4ccc(N5CC[C@@H](N(C)C)C5)c(N)c4)ncc3C(F)(F)F)c[nH]c12` [Compound R-367, (R)-4-(3-(dimethylamino)pyrrolidin-1-yl)-N^1-(4-(7-methyl-1H-indol-3-yl)-5-(trifluoromethyl)pyrimidin-2-yl)benzene-1,3-diamine] is 5.7 nM; for `COc1cnc(-n2cc(-c3nc(Nc4ccc(N(C)CCN(C)C)c(NC(C)=O)c4)ncc3OC)c3ccccc32)nc1-c1c[nH]c2ccccc12` [Compound 272b, N-(5-(4-(1-(4-(1H-indol-3-yl)-5-methoxypyrimidin-2-yl)-1H-indol-3-yl)-5-methoxypyrimidin-2-ylamino)-2-((2-(dimethylamino)ethyl)(methyl)amino)phenyl)acetamide] it is 2060 nM; for `CC(=O)Nc1cc(Nc2nc(-c3c[nH]c4ccccc34)ncc2C(F)(F)F)cc(F)c1N(C)CCN(C)C` [Compound 299b, N-(5-((2-(1H-indol-3-yl)-5-(trifluoromethyl)pyrimidin-4-yl)amino)-2-((2-(dimethylamino)ethyl)(methyl)amino)-3-fluorophenyl)acetamide] it is 3380 nM.

`CN(C)CCN(C)c1ccc(Nc2ncc(Cl)c(-c3cn(C)c4c(F)cccc34)n2)cc1N` [Compound 417, N^4-(5-chloro-4-(7-fluoro-1-methyl-1H-indol-3-yl)pyrimidin-2-yl)-N^1-(2-(dimethylamino)ethyl)-N^1-methylbenzene-1,2,4-triamine]: the IC50 amounted to 94.2 nM. Same read-out and setting: the figure for `CCN(CCN(C)C)c1ccc(Nc2ncc(C(F)(F)F)c(-c3cn(C)c4c(F)cccc34)n2)cc1NC(C)=O` [Compound 348, N-(2-((2-(dimethylamino)ethyl)(ethyl)amino)-5-((4-(7-fluoro-1-methyl-1H-indol-3-yl)-5-(trifluoromethyl)pyrimidin-2-yl)amino)phenyl)acetamide] is 87.8 nM; for `CN(C)CCN(C)c1ccc(Nc2nc(Oc3cccc(N)c3)c3cc[nH]c3n2)cc1F` [Compound 180, N^4-(4-(3-aminophenoxy)-7H-pyrrolo[2,3-d]pyrimidin-2-yl)-N^1-(2-(dimethylamino)ethyl)-2-fluoro-N1-methylbenzene-1,4-diamine] it is 3060 nM.

As to `CC(=O)Nc1cc(Nc2ncc(Cl)c(-c3c[nH]c4c(F)cccc34)n2)ccc1N1CC[C@H](N(C)C)C1` [Compound S-409, (S)—N-(5-((5-chloro-4-(7-fluoro-1H-indol-3-yl)pyrimidin-2-yl)amino)-2-(3-(dimethylamino)pyrrolidin-1-yl)phenyl)acetamide], the IC50 stood at 24.6 nM.

Turning to `Cc1nc2cc(Nc3ncc(C(F)(F)F)c(-c4cn(C)c5c(F)cccc45)n3)ccc2n1CCN(C)C` [Compound 351, 1-(2-(dimethylamino)ethyl)-N-(4-(7-fluoro-1-methyl-1H-indol-3-yl)-5-(trifluoromethyl)pyrimidin-2-yl)-2-methyl-1H-benzo[d]imidazol-5-amine], the IC50 stood at 172 nM.

Turning to `CC(=O)Nc1cc(Nc2ncc(F)c(-c3cn(-c4ncc(F)c(-c5c[nH]c6ccccc56)n4)c4ccccc34)n2)ccc1N(C)CCN(C)C` [Compound 259b, N-(2-((2-(dimethylamino)ethyl)(methyl)amino)-5-((5-fluoro-4-(1-(5-fluoro-4-(1H-indol-3-yl)pyrimidin-2-yl)-1H-indol-3-yl)pyrimidin-2-yl)amino)phenyl)acetamide], the IC50 worked out at 541 nM. The same measure, in the same setting: the figure for `CC(=O)Nc1cc(Nc2ncc(C(F)(F)F)c(-c3c[nH]c4c(C)cccc34)n2)ccc1N(CCN(C)C)C(C)=O` [Compound 363, N-(2-acetamido-4-((4-(7-methyl-1H-indol-3-yl)-5-(trifluoromethyl)pyrimidin-2-yl)amino)phenyl)-N-(2-(dimethylamino)ethyl)acetamide] is 93.4 nM. Still for that read-out and setting: as for `CCN(C(=O)CCN(C)C)c1ccc(Nc2ncc(Cl)c(-c3cn(C)c4ccccc34)n2)cc1NC(C)=O` [Compound 406, N-(2-acetamido-4-((5-chloro-4-(1-methyl-1H-indol-3-yl)pyrimidin-2-yl)amino)phenyl)-3-(dimethylamino)-N-ethylpropanamid], the figure is 60.1 nM. `COc1cnc(Nc2ccc(N(CCN(C)C)C(C)=O)c(NC(C)=O)c2)nc1-c1c[nH]c2c(OC)cccc12` [Compound 286, N-(2-acetamido-4-((5-methoxy-4-(7-methoxy-1H-indol-3-yl)pyrimidin-2-yl)amino)phenyl)-N-(2-(dimethylamino)ethyl)acetamide]: the IC50 was 14.6 nM. Still for that read-out and setting: as for `CCN(CCN(C)C)c1ccc(Nc2nc3c(c(-c4cn(C)c5ccccc45)n2)COCC3)cc1NC(C)=O` [Compound 257c, N-(2-((2-(dimethylamino)ethyl)(ethyl)amino)-5-((4-(1-methyl-1H-indol-3-yl)-7,8-dihydro-5H-pyrano[4,3-d]pyrimidin-2-yl)amino)phenyl)acetamide], the figure is > 10000 nM.

As for `CN(C)CCN(C)c1ccc(Nc2ncc(C(F)(F)F)c(-c3cn(C)c4ccc(F)cc34)n2)cc1N` [Compound 326, N^1-(2-(dimethylamino)ethyl)-N^4-(4-(5-fluoro-1-methyl-1H-indol-3-yl)-5-(trifluoromethyl)pyrimidin-2-yl)-N^1-methylbenzene-1,2,4-triamine], the IC50 amounted to 58.2 nM.

Still in this assay, the particulars now being: KM12-Luc, 72 h, read-out: NTRK IC50 in KM12-luc.
Turning to `CCN(CCN(C)C)c1ccc(Nc2nc(-c3cn(C)c4ccc(F)cc34)c3cc[nH]c3n2)cc1NC(C)=O` [Compound 227c, N-(2-((2-(dimethylamino)ethyl)(ethyl)amino)-5-((4-(5-fluoro-1-methyl-1H-indol-3-yl)-7H-pyrrolo[2,3-d]pyrimidin-2-yl)amino)phenyl)acetamide], the IC50 was 436 nM.

Still in this assay, the particulars now being: KM12-luc cells, treated with test compounds for 72 hrs, CCK-8 viability; read-out: NTRK IC50 in KM12-luc.
With `CC(=O)Nc1cc(Nc2ncc(Cl)c(-c3cn(C)c4c(C)cccc34)n2)ccc1N1CC[C@H](N(C)C)C1` [Compound S-432, (S)—N-(5-((5-chloro-4-(1,7-dimethyl-1H-indol-3-yl)pyrimidin-2-yl)amino)-2-(3-(dimethylamino)pyrrolidin-1-yl)phenyl)acetamide], the half-inhibitory concentration (IC50) was determined as 22.4 nM.
